Columns and labels:
P-gp [1] = biological target: T1, P-gp (Homo sapiens, UniProt P08183); design: method as in PMID 17256728; details: adriamycin-resisitant human breast cancer cells, MCF-7/ADR; cited from earlier work
T1 construct: purchased Promega V3601

[2] = system: LPS-stimulated RAW264.7 cells; design: method as in PMID 23435946, PMID 23935669; details: cited from earlier work
CYP2C = details: competitive inhibitor; cited from earlier work
human UGT2B17 = system: human UGT2B17; design: method as in PMID 22958586; details: cited from earlier work
P-gp [3] = biological target: T1, P-gp; assay: Luminogenic P-gp (ATPase) inhibition assay; format: biochemical; details: specific inhibitor positive control, means ± S.D., read-out: IC50 Inhibitors
Source text: In vitro enzymatic inhibition assays of human Phase I (CYPs) and Phase II (UGTs) DME, and P-gp were done with commercially available luminogenic assay systems. The assay systems were purchased from Promega (Madison, WI, USA), and the microsomes containing the recombinant human CYPs were purchased from Life Technologies (Carlsbad, CA, USA). The microsomes containing human UGT and P-gp were supplied in the luminogenic assay systems (Promega). […] The enzyme reaction was done according to the manufacturer’s instructions.

UGT1A3 = system: UGT1A3; design: method as in PMID 23339253; details: cited from earlier work
UGT1A1 = biological target: T2, UGT1A1 (Homo sapiens, UniProt P22309); assay: Luminogenic UGT1A1 inhibition assay; format: biochemical; details: specific inhibitor positive control, means ± S.D., read-out: IC50 Inhibitors
T2 construct: purchased Promega V2120
T2 sequence (P22309 26-533): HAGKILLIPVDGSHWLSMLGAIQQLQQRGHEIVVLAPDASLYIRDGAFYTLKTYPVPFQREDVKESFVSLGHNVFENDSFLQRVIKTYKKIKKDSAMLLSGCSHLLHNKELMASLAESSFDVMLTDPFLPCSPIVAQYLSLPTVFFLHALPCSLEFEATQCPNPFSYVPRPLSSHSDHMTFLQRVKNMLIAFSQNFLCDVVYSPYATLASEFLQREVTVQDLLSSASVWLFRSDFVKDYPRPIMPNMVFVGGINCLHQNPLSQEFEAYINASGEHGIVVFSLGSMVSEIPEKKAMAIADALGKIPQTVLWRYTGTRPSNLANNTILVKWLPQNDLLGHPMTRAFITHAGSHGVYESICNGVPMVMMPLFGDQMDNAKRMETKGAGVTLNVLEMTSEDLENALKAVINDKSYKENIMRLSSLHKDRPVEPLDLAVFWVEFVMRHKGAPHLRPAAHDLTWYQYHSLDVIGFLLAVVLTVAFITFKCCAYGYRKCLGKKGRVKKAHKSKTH
Source text: In vitro enzymatic inhibition assays of human Phase I (CYPs) and Phase II (UGTs) DME, and P-gp were done with commercially available luminogenic assay systems. The assay systems were purchased from Promega (Madison, WI, USA), and the microsomes containing the recombinant human CYPs were purchased from Life Technologies (Carlsbad, CA, USA). The microsomes containing human UGT and P-gp were supplied in the luminogenic assay systems (Promega). […]. […]. The enzyme reaction was done according to the manufacturer’s instructions. The luminescent intensity, which is correlated with the enzyme activity, was quantified with a TriStar LB 941 multimode microplate reader (Berthold Technologies, Bad Wildbad, Germany). […]

T1 sequence (P08183 whole entry): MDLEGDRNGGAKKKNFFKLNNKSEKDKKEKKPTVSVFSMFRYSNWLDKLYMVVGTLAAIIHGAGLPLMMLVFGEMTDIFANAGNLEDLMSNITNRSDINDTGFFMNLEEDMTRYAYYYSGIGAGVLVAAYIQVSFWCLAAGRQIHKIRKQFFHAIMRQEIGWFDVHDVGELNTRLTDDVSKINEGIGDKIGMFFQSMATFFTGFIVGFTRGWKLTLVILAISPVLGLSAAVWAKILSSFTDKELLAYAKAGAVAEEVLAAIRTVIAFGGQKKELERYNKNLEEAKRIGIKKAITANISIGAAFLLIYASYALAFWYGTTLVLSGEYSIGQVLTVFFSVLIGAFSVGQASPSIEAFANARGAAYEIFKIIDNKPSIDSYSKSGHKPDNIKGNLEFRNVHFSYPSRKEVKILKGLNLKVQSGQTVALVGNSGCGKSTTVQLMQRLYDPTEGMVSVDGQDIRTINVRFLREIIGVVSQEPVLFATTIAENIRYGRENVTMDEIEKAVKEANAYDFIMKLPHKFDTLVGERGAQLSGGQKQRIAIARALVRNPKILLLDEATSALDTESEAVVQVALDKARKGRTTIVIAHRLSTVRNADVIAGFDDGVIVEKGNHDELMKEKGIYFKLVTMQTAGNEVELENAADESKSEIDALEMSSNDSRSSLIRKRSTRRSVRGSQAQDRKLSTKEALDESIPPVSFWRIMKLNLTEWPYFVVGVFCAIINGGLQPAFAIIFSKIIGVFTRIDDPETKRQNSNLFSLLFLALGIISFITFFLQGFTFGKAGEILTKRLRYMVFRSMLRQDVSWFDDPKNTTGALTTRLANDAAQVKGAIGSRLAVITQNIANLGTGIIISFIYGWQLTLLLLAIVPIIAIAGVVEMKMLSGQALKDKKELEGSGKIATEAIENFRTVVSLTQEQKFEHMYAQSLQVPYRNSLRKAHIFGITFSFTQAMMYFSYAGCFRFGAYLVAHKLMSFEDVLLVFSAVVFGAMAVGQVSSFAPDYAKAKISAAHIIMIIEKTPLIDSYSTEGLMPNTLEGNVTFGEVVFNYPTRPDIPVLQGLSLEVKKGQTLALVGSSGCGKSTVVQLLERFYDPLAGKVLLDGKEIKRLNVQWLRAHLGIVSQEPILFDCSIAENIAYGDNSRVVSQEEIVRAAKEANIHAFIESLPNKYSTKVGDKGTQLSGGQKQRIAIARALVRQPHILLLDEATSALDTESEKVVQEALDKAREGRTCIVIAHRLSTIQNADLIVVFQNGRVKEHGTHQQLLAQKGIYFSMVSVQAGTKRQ

## COc1cc([C@H]2OC[C@H]3[C@@H]2CO[C@@H]3c2cc(OC)c(O)c(OC)c2)cc(OC)c1O [syringaresinol]
P-gp [1]
  inhibitory effects on P-gp: exhibited inhibitory effects
[2]
  median effective doses (ED50), inhibition of NO production: 10.0 µM

## O=c1c(O)c(-c2ccc(O)c(O)c2)oc2cc(O)cc(O)c12 [Quercetin]
CYP2C
  Ki: 1.67 µM
[2]
  median effective doses (ED50), inhibition of NO production: 5.5 µM
Human UGT2B17
  inhibition of human UGT2B17: inhibits

## [Na+].[Na+].[Na+].[O]=[V]([O-])([O-])[O-] [Na3VO4]
P-gp [3]
  IC50: 3.4 ± 0.32 µM

## COc1cc2c(c(OC)c1OC)-c1c(cc(OC)c(OC)c1OC)C[C@H](C)[C@H](C)C2 [deoxyschizandrin]
UGT1A3
  inhibition of UGT1A3 isotype: potently inhibit

## O=C(O)Cc1ccccc1Nc1c(Cl)cccc1Cl [Diclofenac]
UGT1A1
  IC50: 180 ± 29.6 µM

## schisantherin A
UGT1A3
  inhibition of UGT1A3 isotype: potently inhibit

From PMC4683934, “Effect of an ethanol extract of Descurainia sophia seeds on Phase I and II drug metabolizing enzymes and P-glycoprotein activity in vitro” (BMC Complementary and Alternative Medicine, 2015)
